Experimental data: patent US20240408222A1, “COMPOUNDS, PHARMACEUTICAL COMPOSITIONS, AND METHODS FOR THE TREATMENT, PREVENTION, OR MANAGEMENT OF HYPERPRO[…]” (VINCERX PHARMA GMBH, priority 2021, published 2024)

Assays:
HT29 [1] = experiment: Cytotoxicity in vitro in presence/absence of legumain; assay type: cell-based, human
786-O = experiment: Cytotoxicity assay (Version 2, automated, AC50) with/without neutrophil elastase; assay type: cell-based, human; details: Version 2, activity concentration at −50%
Method in brief: (§1)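 MTT absorbance at 570 nm after 72 h compound exposure (10^−5–10^−13 M, triplicate), run in parallel sets ± 10 nM elastase. Values normalized between medium-only wells (−100%) and DMSO controls (0%); AC50 = concentration giving −50%, via 4-parameter Hill fit.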

HT29 [2] = experiment: as above; assay type: cell-based, human; details: Version 2, activity concentration at −50%
Method in brief: as §1

NCI H292 [3] = experiment: as above; assay type: cell-based, human; details: Version 2, activity concentration at −50%
Method in brief: as §1

NCI H292 [4] = experiment: Cytotoxicity in vitro in presence/absence of legumain; assay type: cell-based, human
SUM149 [5] = experiment: Cytotoxicity assay (Version 2, automated, AC50) with/without neutrophil elastase; assay type: cell-based; details: Version 2, activity concentration at −50%
Method in brief: as §1

SUM149 [6] = experiment: Cytotoxicity in vitro in presence/absence of legumain; assay type: cell-based
rec. human legumain = rec. human legumain (Homo sapiens, UniProt Q99538); details: for metabolite formation after incubation with legumain: 16 h incubation, 37° C., pH 5,0; for metabolite formation without addition of active legumain: control without active legumain
Experimental: 10 μg rec. human legumain are added to 100 μL activation buffer (50 mM sodium acetate buffer/100 mM NaCl, pH 4,0) and incubated for 2 h at 37° C., before 4.9 mL assay buffer (50 mM MES buffer/250 mM NaCl, pH 5,0) is added (final concentration of rec. hum. legumain: 2 μg/mL). For the selected sample, activated legumain is added to the compound solution. Then the solution is incubated at 37° C. At 16 h-a 50 μL sample is taken and added to 100 μL ice-cold methanol. For the untreated control (0 h) ice-cold methanol is pipetted in a tube before the legumain and compound solution are added. Samples can be stored at −20° C. or analyzed directly by HPLC or LCMS. The metabolite and the parent compound (educt) are measured.
Samples from enzymatic assays are added to the double volume of methanol and incubated for at least 30 min at −20° C. to precipitate proteins. Samples are then centrifuged for 10 min, 16100×g at 4° C. and analyzed by RP-HPLC using a gradient (PLRP-S-A1 79.0% PLRP-S—B1 21.0%, duration 24 min). After the centrifugation the supernatant is collected, calibration curves are obtained using the respective compound and the corresponding metabolite solution. A 10 mM DMSO stock solution is diluted with Methanol to achieve the chosen end concentration.

HT29 [7] = experiment: Cytotoxicity in vitro in presence/absence of cathepsin B; assay type: cell-based, human
NCI H292 [8] = experiment: as above; assay type: cell-based, human
SUM149 [9] = experiment: as above; assay type: cell-based
cathepsin B = cathepsin B (Homo sapiens, UniProt P07858); experiment: Biochemical cathepsin B cleavage assay (metabolite detection by RP-HPLC)
Experimental: Incubation of samples starts with addition of cathepsin B solution (2.5 μg in […] 50 mM sodium phosphate buffer, pH 6.0/2 mM DTT). The incubation is performed at 40° C., and after 16 h incubation a 40 μL sample is taken and added to 80 μL ice-cold methanol. […] The metabolite (product) and the parent compound (educt) is measured.

in vivo = details: male, rat, plasma, iv, 2 mg/kg
Experimental: Male rats (n=3) were given an intravenous 0.5 or 2.0 mg/kg bolus dose of test article dissolved in plasma with 1% DMSO and 2% ethanol (C30 only). Serial blood samples were collected up to 24 hours post-dose. Plasma was harvested from blood samples and stored frozen until sample analysis. Test article plasma concentrations were analyzed by LC/MS/MS.

[10] = without (−) neutrophil elastase
[11] = HT29, with (+) neutrophil elastase
[12] = HT29, without (−) neutrophil elastase
[13] = NCI H292, with (+) neutrophil elastase
[14] = NCI H292, without (−) neutrophil elastase
[15] = SUM149, with (+) neutrophil elastase
[16] = SUM149, without (−) neutrophil elastase

Chain of rec. human legumain (Q99538 18-323 limits assumed): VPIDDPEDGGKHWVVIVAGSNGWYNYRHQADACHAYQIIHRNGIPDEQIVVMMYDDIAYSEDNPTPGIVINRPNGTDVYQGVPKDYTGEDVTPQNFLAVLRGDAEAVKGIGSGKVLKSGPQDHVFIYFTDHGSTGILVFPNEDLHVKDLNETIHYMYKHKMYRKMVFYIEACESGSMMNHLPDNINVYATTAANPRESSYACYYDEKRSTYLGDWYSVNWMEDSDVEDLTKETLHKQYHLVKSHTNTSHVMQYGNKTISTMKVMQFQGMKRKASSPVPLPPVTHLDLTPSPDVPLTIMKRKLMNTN

Row | Molecule | IC50 (HT29 [1]; HT29, with (+) legumain) [nM] | IC50 (HT29 [1]; HT29, without (−) legumain) [nM] | AC50 (786-O; with (+) neutrophil elastase) [nM] | AC50 (786-O; [10]) [nM] | AC50 (HT29 [2]; [11]) [nM] | AC50 (HT29 [2]; [12]) [nM] | AC50 (NCI H292 [3]; [13]) [nM] | AC50 (NCI H292 [3]; [14]) [nM] | IC50 (NCI H292 [4]; NCI H292, with (+) legumain) [nM] | IC50 (NCI H292 [4]; NCI H292, without (−) legumain) [nM] | AC50 (SUM149 [5]; [15]) [nM] | AC50 (SUM149 [5]; [16]) [nM] | IC50 (SUM149 [6]; SUM149, with (+) legumain) [nM] | IC50 (SUM149 [6]; SUM149, without (−) legumain) [nM] | metabolite formation after incubation with legumain (rec. human legumain) | metabolite formation without addition of active legumain (rec. human legumain) | AUC (in vivo) [ng·h/mL] | Vd (in vivo) [L/kg] | clearance (in vivo) [mL/min/kg] | half-life (in vivo) [h] | further results
1 | Sodium N-{14-[4-({[(1S)-2-carboxylato-1-{3-[({3-[(propylcarbamoyl)amino]phenyl}sulfonyl) amino]phenyl}ethyl]carbamoyl}amino)anilino]-14-oxo-4,7,10-trioxa-13-azatetradecan-1-oyl}-L-alanyl-N-methyl-L-alanyl-N′—[(S)-{[16,20-difluoro-2,3,4,5-tetrahydro-12H-13,17-(azeno)-11,7-(metheno)-1,6,12,14-benzodioxadiazacyclononadecin-9-yl]methyl} (methyl)oxido-lambda^6-sulfanylidene]-L-aspartamide [Compound 13] | 11 to 100 | 11 to 100 | 11 to 100 | > 1000 | 11 to 100 | > 1000 | 100 to 1000 | 100 to 1000 | 11 to 100 | 11 to 100 | 11 to 100 | > 1000 | 11 to 100 | 11 to 100 | complete metabolite formation | no metabolite formation is detected | – | – | – | – | –
2 | CCCNC(=O)Nc1cccc(S(=O)(=O)Nc2cccc([C@@H](CC(=O)[O-])NC(=O)Nc3ccc(NC(=O)NCCOCCOCCOCCC(=O)N[C@@H](C)C(=O)N(C)[C@@H](C)C(=O)N[C@@H](CC(=O)N=[S@@](C)(=O)Cc4cc5cc(c4)OCCCCOc4cc(F)ccc4-c4nc(ncc4F)N5)C(N)=O)cc3)c2)c1.[Na+] [Compound 8, sodium N-{14-[4-({[(1R)-2-carboxylato-1-{3-[({3-[(propylcarbamoyl)amino]phenyl}sulfonyl)amino]phenyl}ethyl]carbamoyl}amino)anilino]-14-oxo-4,7,10-trioxa-13-azatetradecan-1-oyl}-L-alanyl-N-methyl-L-alanyl-N′—[(S)-{[16,20-difluoro-2,3,4,5-tetrahydro-12H-13,17-(azeno)-11,7-(metheno)-1,6,12,14-benzodioxadiazacyclononadecin-9-yl]methyl}(methyl)oxido-lambda^6-sulfanylidene]-L-aspartamide] | 11 to 100 | 11 to 100 | 100 to 1000 | > 1000 | 11 to 100 | > 1000 | 100 to 1000 | 100 to 1000 | 1.1 to 10 | 11 to 100 | 100 to 1000 | > 1000 | 11 to 100 | 11 to 100 | complete metabolite formation | no metabolite formation is detected | – | – | – | – | –
3 | CCCNC(=O)Nc1cccc(S(=O)(=O)Nc2cccc([C@@H](CC(=O)[O-])NC(=O)Nc3ccc(NC(=O)NCCOCCOCCOCCC(=O)N[C@H](C(=O)N[C@@H](CCCNC(N)=O)C(=O)N=[S@@](C)(=O)Cc4cc5cc(c4)OCCCCOc4cc(F)ccc4-c4nc(ncc4F)N5)C(C)C)cc3)c2)c1.[Na+] [Compound 7, sodium N-{14-[4-({[(1R)-2-carboxylato-1-{3-[({3-[(propylcarbamoyl)amino]phenyl}sulfonyl)amino]phenyl}ethyl]carbamoyl}amino)anilino]-14-oxo-4,7,10-trioxa-13-azatetradecan-1-oyl}-L-valyl-N^5-carbamoyl-N—[(S)-{[16,20-difluoro-2,3,4,5-tetrahydro-12H-13,17-(azeno)-11,7-(metheno)-1,6,12,14-benzodioxadiazacyclononadecin-9-yl]methyl}(methyl)oxido-lambda^6-sulfanylidene]-L-ornithinamide] | – | – | 11 to 100 | 11 to 100 | 11 to 100 | 11 to 100 | 100 to 1000 | 100 to 1000 | – | – | 11 to 100 | 11 to 100 | – | – | – | – | – | – | – | – | IC50 (HT29 [7]; HT29, with (+) cathepsin): > 100 nM; IC50 (HT29 [7]; HT29, without (−) cathepsin): > 100 nM; IC50 (NCI H292 [8]; NCI H292, with (+) cathepsin): 11 to 100 nM; IC50 (NCI H292 [8]; NCI H292, without (−) cathepsin): 11 to 100 nM; IC50 (SUM149 [9]; SUM149, with (+) cathepsin): 11 to 100 nM; IC50 (SUM149 [9]; SUM149, without (−) cathepsin): > 100 nM; metabolite detected after incubation with cathepsin B (cathepsin B; 16 h incubation, 40° C., pH 6.0): 16%; metabolite formation without addition of active cathepsin B (cathepsin B; control without active cathepsin B): no metabolite formation is detected
4 | CCCNC(=O)Nc1cccc(S(=O)(=O)Nc2cccc([C@H](CC(=O)O)NC(=O)Nc3ccc(NC(=O)NCCOCCOCCOCCC(=O)N[C@@H](CCCCNC(=O)CCOCCOCCOCCNC(=O)Nc4ccc(NC(=O)N[C@H](CC(=O)O)c5cccc(NS(=O)(=O)c6cccc(NC(=O)NCCC)c6)c5)cc4)C(=O)NCCOCCOCCOCCC(=O)N[C@@H](CC(=O)O)C(=O)N4CCC[C@H]4C(=O)N[C@H](C(=O)N=S(C)(=O)Cc4cc5nc(c4)OCCCOc4cc(F)ccc4-c4cc(ncc4F)N5)C(C)C)cc3)c2)c1 (relative stereo) [Compound 33] | – | – | – | – | – | – | – | – | – | – | – | – | – | – | – | – | 50000 to 150000 | > 0.1 | 0.5 to 5 | 10 to 20 | –
5 | CCCNC(=O)Nc1cccc(S(=O)(=O)Nc2cccc([C@@H](CC(=O)O)NC(=O)Nc3ccc(NC(=O)NCCOCCOCCOCCC(=O)N[C@@H](CC(=O)O)C(=O)N4CCC[C@H]4C(=O)N[C@H](C(=O)N=S(C)(=O)Cc4cc5nc(c4)OCCCOc4cc(F)ccc4-c4cc(ncc4F)N5)C(C)C)cc3)c2)c1 (single isomer, unassigned) [Compound 41, disodium 1-{(2S)-2-(carboxylatomethyl)-17-[4-({[(1R)-2-carboxylato-1-{3-[({3-[(propylcarbamoyl)amino]phenyl}sulfonyl)amino]phenyl}ethyl]carbamoyl}amino)anilino]-4,17-dioxo-7,10,13-trioxa-3,16-diazaheptadecan-1-oyl}-L-prolyl-N—[(R*)—{[15,19-difluoro-3,4-dihydro-2H,11H-10,6-(azeno)-12,16-(metheno)-1,5,11,13-benzodioxadiazacyclooctadecin-8-yl]methyl}(methyl)oxido-lambda^6-sulfanylidene]-L-valinamide] | – | – | – | – | – | – | – | – | – | – | – | – | – | – | – | – | 1000 to 10000 | > 0.1 | 0.5 to 5 | 10 to 20 | –
